Values quoted from earlier work as cited in US20220409679A1, “COMPOSITIONS AND METHODS WITH A PROBIOTIC AND A NUTRIENT AND/OR MINERAL FOR THE PREVENTION OR TREATMENT OF MASTITIS” (SOCIETE DES PRODUITS NESTLE S.A., priority 2019, published 2022).

Experiments:
[1] = test system: mastitis in cows; conditions: O'Rourke 2009; for symptoms associated with mastitis: supplementation
[2] = O'Rourke 2009

Row | SMILES | immune system [1] | symptoms associated with mastitis [1] | antibacterial activity in milk [2]
1 | [Cu] [copper] | enhance the immune system | reduce mastitis symptoms in cows | 
2 | [Se] [selenium] |  | improves symptoms associated with mastitis in cows | improves antibacterial activity in milk
3 | [Zn] [zinc] | enhance the immune system | reduce mastitis symptoms in cows | 
